Assays:
Test in all cases: relative viability (nuclei count vs DMSO), 5 days (fraction); higher = more cells survive
[1] = compound: CCCS(=O)(=O)Nc1ccc(F)c(C(=O)c2c[nH]c3ncc(-c4ccc(Cl)cc4)cc23)c1F [Vemurafenib] + N=C(N)NC(=N)NCCc1ccccc1 [Phenformin] (partner 250 µM)
How it was run: (§1)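 Relative viability was taken as the ratio of nuclei in treated wells to nuclei in vehicle wells. Lung cancer cell lines in 1536-well plates received compounds by pin tool one day after seeding, either one drug alone or a fixed anchor-drug dose plus five library-drug doses (not always all listed) in √10 steps. Nuclei were counted on 4× images after 5 days of treatment, and values are medians of duplicate plates.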

[2] = compound: COc1cccc2cc(-c3nc([C@H]4CC[C@H](C(=O)O)CC4)n4ncnc(N)c34)[nH]c12 [OSI-027] + COc1cc2c(Oc3ccc(NC(=O)C4(C(=O)Nc5ccc(F)cc5)CC4)cc3F)ccnc2cc1OCCCN1CCOCC1 [Foretinib] (partner 0.25 µM)
How it was run: as §1

[3] = compound: CCCS(=O)(=O)Nc1ccc(F)c(C(=O)c2c[nH]c3ncc(-c4ccc(Cl)cc4)cc23)c1F [Vemurafenib] + O=C(c1cc(Cc2n[nH]c(=O)c3ccccc23)ccc1F)N1CCN(C(=O)C2CC2)CC1 [Olaparib] (partner 8 µM)
How it was run: as §1

[4] = compound: COc1cccc2cc(-c3nc([C@H]4CC[C@H](C(=O)O)CC4)n4ncnc(N)c34)[nH]c12 [OSI-027] + O=C(CCCCCCC(=O)Nc1ccccc1)NO [Vorinostat] (partner 1 µM)
How it was run: as §1

Row | Cell Line | relative viability ([1]; first compound 0.03162 µM) | relative viability ([1]; first compound 0.1 µM) | relative viability ([1]; first compound 0.3162 µM) | relative viability ([1]; first compound 1 µM) | relative viability ([2]; first compound 0.01 µM) | relative viability ([2]; first compound 0.03162 µM) | relative viability ([2]; first compound 0.1 µM) | relative viability ([2]; first compound 0.3162 µM) | relative viability ([2]; first compound 1 µM) | relative viability ([3]; first compound 0.03162 µM) | relative viability ([3]; first compound 0.1 µM) | relative viability ([3]; first compound 1 µM) | relative viability ([4]; first compound 0.01 µM) | relative viability ([4]; first compound 0.03162 µM) | relative viability ([4]; first compound 0.1 µM) | relative viability ([4]; first compound 0.3162 µM) | relative viability ([4]; first compound 1 µM) | relative viability ([3]; first compound 0.3162 µM)
1 | A-427 | 0.317 | 0.313 | 0.267 | 0.365 | 0.952 | 1 | 0.89 | 0.707 | 0.423 | 0.71 | 0.663 | 0.701 | 0.886 | 0.844 | 0.78 | 0.721 | 0.542 | 
2 | NCI-H1703 |  |  |  |  | 0.324 | 0.336 | 0.291 | 0.429 | 0.324 | 0.432 | 0.307 | 0.515 |  |  |  |  |  | 0.454
3 | HCC-366 | 0.61 | 0.565 | 0.247 | 0.593 | 0.98 | 1.05 | 0.978 | 0.878 | 0.748 | 0.343 | 0.304 | 0.388 | 0.404 | 0.367 | 0.325 | 0.314 | 0.194 | 
4 | NCI-H661 | 0.251 | 0.289 | 0.258 | 0.307 | 0.984 | 0.893 | 1.03 | 0.975 | 0.599 | 0.686 | 0.752 | 0.709 | 0.806 | 0.801 | 0.759 | 0.717 | 0.458 | 0.769
5 | NCI-H2126 | 0.513 | 0.485 |  | 0.533 | 1.3 | 0.983 | 1.2 | 0.862 | 0.786 | 0.835 | 0.956 | 0.922 | 0.703 | 0.682 | 0.692 | 0.627 | 0.586 | 0.92
6 | LCLC-97TM1 | 0.4 | 0.43 | 0.43 | 0.342 | 0.969 | 0.927 | 0.994 | 0.584 | 0.432 |  | 0.416 | 0.269 | 0.816 | 0.642 | 0.699 | 0.503 | 0.345 | 0.353
7 | NCI-H2405 | 0.382 | 0.374 |  | 0.368 | 1.02 | 0.968 | 0.918 | 0.734 | 0.537 | 0.857 | 0.893 | 0.937 | 1.04 | 1.02 | 0.899 | 0.831 | 0.549 | 
8 | COR-L 105 | 0.399 |  |  | 0.5 | 1.22 | 1.24 | 0.888 | 1.29 | 0.995 | 0.617 |  | 0.734 | 0.552 | 0.727 | 0.879 | 0.617 | 0.605 | 0.742
9 | BEN | 0.255 | 0.299 |  | 0.249 | 0.475 | 0.617 | 0.371 | 0.3 | 0.258 | 0.971 | 0.992 | 1.06 | 0.557 | 0.55 | 0.511 | 0.428 | 0.297 | 0.653
10 | HCC-827 | 0.377 |  | 0.425 | 0.404 | 1.19 | 1.03 | 0.991 | 0.855 | 0.411 | 0.624 |  | 0.632 | 0.61 | 0.851 | 0.768 | 0.852 | 0.475 | 0.65
11 | NCI-H3122 | 0.357 | 0.372 | 0.292 | 0.394 | 1.02 | 0.998 | 1.03 | 0.98 | 0.45 | 0.63 | 0.647 | 0.597 | 0.991 | 1.09 | 1.06 | 0.93 | 0.732 | 0.606
12 | NCI-H1299 |  |  |  |  | 1.14 | 1.13 | 1.09 | 1.14 | 1.03 | 0.906 | 0.954 | 0.792 |  |  |  |  |  | 0.863
13 | LK-2 | 0.396 | 0.609 | 0.398 | 0.185 | 1.13 | 1.2 | 1.13 | 0.778 | 0.195 | 0.618 | 0.633 | 0.417 | 0.272 | 0.296 | 0.244 | 0.176 | 0.179 | 0.644
14 | HCC-15 | 0.441 | 0.497 |  | 0.45 | 1.11 | 0.954 | 0.969 | 0.895 | 0.58 | 0.699 | 0.669 | 0.522 | 0.835 | 0.838 | 0.779 | 0.616 | 0.424 | 0.606
15 | IA-LM |  |  |  |  | 1.21 | 0.992 | 0.729 | 0.807 | 0.136 | 0.67 | 0.818 | 0.721 | 0.997 | 0.388 | 0.652 | 0.479 | 0.15 | 0.78
16 | NCI-H1755 | 0.545 | 0.599 | 0.377 | 0.597 | 0.859 | 0.92 | 0.835 | 0.809 | 0.522 | 0.806 | 0.898 | 0.8 | 0.72 | 0.855 | 0.655 | 0.711 | 0.472 | 0.907
17 | EMC-BAC-2 | 0.509 | 0.461 | 0.26 | 0.452 | 0.898 | 0.972 | 0.887 | 0.745 | 0.329 | 0.444 | 0.528 | 0.369 | 0.333 | 0.498 | 0.299 | 0.236 | 0.277 | 0.352
18 | NCI-H838 | 0.506 | 0.581 |  | 0.672 | 1.04 | 0.827 | 0.901 | 0.568 | 0.416 | 0.746 | 0.764 | 0.821 | 0.65 | 0.646 | 0.632 | 0.55 | 0.459 | 0.697
19 | NCI-H1650 |  | 0.353 |  | 0.376 | 1.42 | 1.21 | 1.19 | 1.25 | 0.797 | 0.677 | 0.626 | 0.791 | 0.56 | 0.515 | 0.532 | 0.407 | 0.358 | 0.844
20 | NCI-H1975 | 0.422 | 0.406 | 0.289 | 0.466 | 1 | 0.954 | 0.783 | 0.841 | 0.635 | 0.728 | 0.755 | 0.793 | 0.722 | 0.647 | 0.672 | 0.657 | 0.496 | 0.727

— the supplement of paper PMC10307832
